Data on one molecule can be found in publication PMC8268022, “Loureirin B Exerts its Immunosuppressive Effects by Inhibiting STIM1/Orai1 and KV1.3 Channels” (Frontiers in Pharmacology, 2021).

In the test the target is T1, Orai1 (STIM1/Orai1 channel, CRAC channel) (Homo sapiens, UniProt Q96D31).
T1 construct: with STIM1
Nature of the test: whole-cell patch clamp of STIM1/Orai1 currents in transfected HEK293T cells. It is filed as cell-based. In general terms: Patch clamp records ionic current or voltage across a cell membrane.

T1 sequence (Q96D31 whole entry): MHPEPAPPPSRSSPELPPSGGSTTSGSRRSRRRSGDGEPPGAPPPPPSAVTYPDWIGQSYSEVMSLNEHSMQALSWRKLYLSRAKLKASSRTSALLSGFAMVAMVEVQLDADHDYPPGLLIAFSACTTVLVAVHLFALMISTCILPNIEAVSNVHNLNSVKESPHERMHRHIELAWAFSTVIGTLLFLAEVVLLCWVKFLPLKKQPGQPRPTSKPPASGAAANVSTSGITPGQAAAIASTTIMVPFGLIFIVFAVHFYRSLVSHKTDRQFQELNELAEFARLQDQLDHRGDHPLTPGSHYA
T1 sequence (Q13586 23-685 partner): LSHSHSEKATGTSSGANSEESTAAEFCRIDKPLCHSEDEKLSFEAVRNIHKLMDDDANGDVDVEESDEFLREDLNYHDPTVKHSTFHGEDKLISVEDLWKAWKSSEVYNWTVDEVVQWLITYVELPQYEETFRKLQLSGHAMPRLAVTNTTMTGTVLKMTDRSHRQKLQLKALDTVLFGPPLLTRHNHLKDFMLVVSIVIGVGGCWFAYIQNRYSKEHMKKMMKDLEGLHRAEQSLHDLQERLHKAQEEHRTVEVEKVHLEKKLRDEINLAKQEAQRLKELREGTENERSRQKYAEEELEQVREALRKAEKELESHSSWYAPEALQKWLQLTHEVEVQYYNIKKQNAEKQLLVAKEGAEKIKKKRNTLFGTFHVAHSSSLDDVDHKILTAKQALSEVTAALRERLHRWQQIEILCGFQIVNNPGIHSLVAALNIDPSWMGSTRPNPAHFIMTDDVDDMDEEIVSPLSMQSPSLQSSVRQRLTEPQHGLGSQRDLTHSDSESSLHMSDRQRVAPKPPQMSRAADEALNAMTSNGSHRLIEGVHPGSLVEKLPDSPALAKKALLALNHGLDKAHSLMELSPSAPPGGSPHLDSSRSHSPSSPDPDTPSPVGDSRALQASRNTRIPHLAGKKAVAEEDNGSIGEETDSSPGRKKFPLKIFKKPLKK

As a reminder, the IC50 is the concentration that inhibits the measured activity by half. Low values mean inhibition by little substance, high ones a need for much substance. For `COc1cc(OC)c(CCC(=O)c2ccc(O)cc2)c(OC)c1` [LrB, Loureirin B], the IC50 was found to be 17.1 ± 2.17 µM.
